Laboratory results from US20260166039A1 (SCHRÖDINGER, INC., priority 2022, published 2026).
Read-outs that look alike come from different tables or passages of the source.

What was measured:
[1] = test system: phosphorylation of Cdc2 Y15 (Wee1 substrate) in A427 cells; assay: Phosphorylated Cdc2 MSD Electrochemiluminescence Assay; assay type: cell-based; details: Homo sapiens
In short: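 Read-out: percent residual phospho-Cdc2 Y15 relative to DMSO and positive-control Wee1 inhibitor, measured by MSD electrochemiluminescence capture/detection antibody assay in cell lysates. A427 cells received duplicate 3-fold compound dilution series 20 h post-seeding, with 6 h total incubation at 37 °C.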

Wee1 kinase domain = target: T1, Wee1 kinase domain (Homo sapiens, UniProt P30291); assay: Wee1 Kinase Biochemical Assay (ADP-Glo); details: 15 uM ATP
T1 construct: Wee1 kinase domain was purchased from Carna (catalog #05-177); purchased Carna 05-177
T1 sequence (P30291 299-569 limits assumed): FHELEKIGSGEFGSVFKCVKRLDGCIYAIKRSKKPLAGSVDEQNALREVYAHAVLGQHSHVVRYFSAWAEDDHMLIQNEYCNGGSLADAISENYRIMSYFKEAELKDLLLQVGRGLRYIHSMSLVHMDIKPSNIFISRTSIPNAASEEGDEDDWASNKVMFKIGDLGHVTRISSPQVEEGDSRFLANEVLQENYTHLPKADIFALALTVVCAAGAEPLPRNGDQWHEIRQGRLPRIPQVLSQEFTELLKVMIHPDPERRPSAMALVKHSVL
In short: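 The reaction mix held 1 nM Wee1 kinase domain, 15 uM ATP and 2 ng/mL Poly(Lys,Tyr 4:1) substrate and was left for 4 hours at 25 °C. ADP production was then measured with ADP-Glo, and percent inhibition was derived relative to DMSO and a saturating Wee1 inhibitor.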

[2] = A-427, class symbols, read-out: A427 pCDC2 MSD IC50
[3] = class symbols, 1 nM Wee1 enzyme, 4 hours at 25° C.

SMILES: CN1CC2(C1)CN(c1ccc(Nc3ncc4c(n3)N(c3cccc(C(C)(C)O)n3)[C@@H]3CC(C)(C)OC[C@]43C)cc1)C2 (single isomer, unassigned) [Example 443]
- IC50 [1, 2]: 100 to 1000 nM
- IC50 (Wee1 kinase domain; [3]): < 10 nM

SMILES: CNCc1cccc(N2c3nc(Nc4ccc(N5[C@@H]6COC[C@H]5C6)cc4)ncc3[C@@]3(C)COC(C)(C)C[C@@H]23)n1 (single isomer, unassigned) [Example 479]
- IC50 [1, 2]: 100 to 1000 nM
- IC50 (Wee1 kinase domain; [3]): < 10 nM

SMILES: CNCc1cccc(N2c3nc(Nc4ccn(C5CCOCC5)c(=O)c4)ncc3[C@@]3(C)COC(C)(C)C[C@@H]23)n1 (single isomer, unassigned) [Example 386]
- IC50 ([1]; A-427, pCDC2 MSD): 100 to 1000 nM
- IC50 (Wee1 kinase domain; Wee1 kinase domain, ADP-Glo): < 10 nM

SMILES: CC1(C)C[C@H]2N(c3cccc(N=S(C)(C)=O)n3)c3nc(Nc4ccc([C@H]5CCNC5)cc4)ncc3[C@@]2(C)CO1 (single isomer, unassigned) [Example 137]
- IC50 ([1]; A-427, pCDC2 MSD): < 100 nM
- IC50 (Wee1 kinase domain; Wee1 kinase domain, ADP-Glo): < 10 nM

SMILES: Cn1cc(Nc2ncc3c(n2)N(c2cccc(N=S(C)(C)=O)n2)[C@@H]2CC(C)(C)OC[C@]32C)nn1 (single isomer, unassigned) [Example 514]
- IC50 [1, 2]: 100 to 1000 nM
- IC50 (Wee1 kinase domain; [3]): < 10 nM

SMILES: CN1CC[C@H](c2ccc(Nc3ncc4c(n3)N(c3cccc(N5CCCC5=O)n3)[C@@H]3CC(C)(C)OC[C@]43C)cc2)C1 [Example 634, 1-(6-((4bR,8aR)-4b,7,7-trimethyl-2-((4-((R)-1-methylpyrrolidin-3-yl)phenyl)amino)-4b,7,8,8a-tetrahydropyrano[3′,4′:4,5]pyrrolo[2,3-d]pyrimidin-9(5H)-yl)pyridin-2-yl)pyrrolidin-2-one]
- IC50 [1, 2]: 100 to 1000 nM
- IC50 (Wee1 kinase domain; [3]): < 10 nM

SMILES: CN1CC(c2ccc(Nc3ncc4c(n3)N(c3cccc(N=S(C)(C)=O)n3)[C@@H]3CC(C)(C)OC[C@]43C)cc2F)C1 (single isomer, unassigned) [Example 184]
- IC50 ([1]; A-427, pCDC2 MSD): < 100 nM
- IC50 (Wee1 kinase domain; Wee1 kinase domain, ADP-Glo): < 10 nM

SMILES: CN1[C@@H]2C[C@H]1CN(c1ccc(Nc3ncc4c(n3)N(c3cccc(N5CCOC5=O)n3)[C@@H]3CC(C)(C)OC[C@]43C)cc1)C2 [Example 700, 3-(6-((4bR,8aR)-4b,7,7-trimethyl-2-((4-((1R,5S)-6-methyl-3,6-diazabicyclo[3.1.1]heptan-3-yl)phenyl)amino)-4b,7,8,8a-tetrahydropyrano[3′,4′:4,5]pyrrolo[2,3-d]pyrimidin-9(5H)-yl)pyridin-2-yl)oxazolidin-2-one]
- IC50 [1, 2]: 100 to 1000 nM
- IC50 (Wee1 kinase domain; [3]): < 10 nM

SMILES: CC1(C)C[C@H]2N(c3cccc(N=S(C)(C)=O)n3)c3nc(Nc4ccc(C5CNC5)cc4)ncc3[C@@]2(C)CO1 (single isomer, unassigned) [Example 163]
- IC50 ([1]; A-427, pCDC2 MSD): < 100 nM
- IC50 (Wee1 kinase domain; Wee1 kinase domain, ADP-Glo): < 10 nM

SMILES: CNCc1cccc(N2c3nc(Nc4ccc(-n5ccnc5)nc4)ncc3[C@@]3(C)COC(C)(C)C[C@@H]23)n1 (single isomer, unassigned) [Example 468]
- IC50 [1, 2]: 1000 to 10000 nM
- IC50 (Wee1 kinase domain; [3]): < 10 nM

SMILES: C[C@H]1COC(=O)N1c1cccc(N2c3nc(Nc4ccc(N5CCN(C)CC5)cc4)ncc3[C@]3(C)COC(C)(C)C[C@H]23)n1 (single isomer, unassigned) [Example 235]
- IC50 ([1]; A-427, pCDC2 MSD): 100 to 1000 nM
- IC50 (Wee1 kinase domain; Wee1 kinase domain, ADP-Glo): < 10 nM

SMILES: CN1CCC[C@@H]1c1ccc(Nc2ncc3c(n2)N(c2cccc(N=S(C)(C)=O)n2)[C@@H]2CC(C)(C)OC[C@]32C)cn1 (single isomer, unassigned) [Example 210]
- IC50 ([1]; A-427, pCDC2 MSD): 100 to 1000 nM
- IC50 (Wee1 kinase domain; Wee1 kinase domain, ADP-Glo): < 10 nM

SMILES: C[C@@H]1CN(c2ccc(Nc3ncc4c(n3)N(c3cccc(N5C(=O)OC[C@@H]5C)n3)[C@@H]3CC(C)(C)OC[C@]43C)cc2)CCN1C (single isomer, unassigned) [Example 313]
- IC50 ([1]; A-427, pCDC2 MSD): 100 to 1000 nM
- IC50 (Wee1 kinase domain; Wee1 kinase domain, ADP-Glo): < 10 nM

SMILES: CN1CC[C@@H](c2ccc(Nc3ncc4c(n3)N(c3cccc(N5CCOC5=O)n3)[C@@H]3CC(C)(C)OC[C@]43C)cc2)C1 (single isomer, unassigned) [Example 605]
- IC50 [1, 2]: 100 to 1000 nM
- IC50 (Wee1 kinase domain; [3]): < 10 nM

SMILES: C[C@H]1COC(=O)N1c1cccc(N2c3nc(Nc4ccc(N5C[C@@H]6C[C@H]5CN6C)c(F)c4)ncc3[C@@]3(C)COC(C)(C)C[C@@H]23)n1 (single isomer, unassigned) [Example 293]
- IC50 ([1]; A-427, pCDC2 MSD): 100 to 1000 nM
- IC50 (Wee1 kinase domain; Wee1 kinase domain, ADP-Glo): < 10 nM

SMILES: CNCc1cccc(N2c3nc(Nc4ccc(N5CCCOCC5)cc4)ncc3[C@@]3(C)COC(C)(C)C[C@@H]23)n1 (single isomer, unassigned) [Example 18]
- IC50 ([1]; A-427, pCDC2 MSD): 100 to 1000 nM
- IC50 (Wee1 kinase domain; Wee1 kinase domain, ADP-Glo): < 10 nM

SMILES: CC1(C)C[C@H]2N(c3cccc(N=S(C)(C)=O)n3)c3nc(Nc4ccc(C5CNC5)c(F)c4)ncc3[C@@]2(C)CO1 (single isomer, unassigned) [Example 183]
- IC50 ([1]; A-427, pCDC2 MSD): 100 to 1000 nM
- IC50 (Wee1 kinase domain; Wee1 kinase domain, ADP-Glo): < 10 nM

SMILES: CN1CC(n2cc(Nc3ncc4c(n3)N(c3cccc(N=S(C)(C)=O)n3)[C@@H]3CC(C)(C)OC[C@]43C)cn2)C1 (single isomer, unassigned) [Example 207]
- IC50 ([1]; A-427, pCDC2 MSD): 100 to 1000 nM
- IC50 (Wee1 kinase domain; Wee1 kinase domain, ADP-Glo): < 10 nM

SMILES: C[C@H]1CN(c2ccc(Nc3ncc4c(n3)N(c3cccc(N=S(C)(C)=O)n3)[C@@H]3CC(C)(C)OC[C@]43C)cc2)CCN1C (single isomer, unassigned) [Example 500]
- IC50 [1, 2]: < 100 nM
- IC50 (Wee1 kinase domain; [3]): < 10 nM

SMILES: CN1C[C@@H]2C[C@H]1CN2c1ccc(Nc2ncc3c(n2)N(c2cccc(N4CCOC4=O)n2)[C@@H]2CC(C)(C)OC[C@]32C)cc1F [Example 676, 3-(6-((4bR,8aR)-2-((3-fluoro-4-((1S,4S)-5-methyl-2,5-diazabicyclo[2.2.1]heptan-2-yl)phenyl)amino)-4b,7,7-trimethyl-4b,7,8,8a-tetrahydropyrano[3′,4′:4,5]pyrrolo[2,3-d]pyrimidin-9(5H)-yl)pyridin-2-yl)oxazolidin-2-one]
- IC50 [1, 2]: 100 to 1000 nM
- IC50 (Wee1 kinase domain; [3]): < 10 nM

SMILES: CC1(C)C[C@H]2N(c3cccc(N=S(C)(C)=O)n3)c3nc(Nc4ccc(N5C[C@H]6C[C@@H]5CO6)cc4)ncc3[C@@]2(C)CO1 (single isomer, unassigned) [Example 498]
- IC50 [1, 2]: 100 to 1000 nM
- IC50 (Wee1 kinase domain; [3]): < 10 nM

SMILES: CC1(C)C[C@H]2N(c3cccc([C@H]4CNCCO4)n3)c3nc(Nc4ccc(N5CCOCC5)cc4)ncc3[C@@]2(C)CO1 [Example 737, (4bR,8aR)-4b,7,7-trimethyl-9-(6-((R)-morpholin-2-yl)pyridin-2-yl)-N-(4-morpholinophenyl)-4b,5,7,8,8a,9-hexahydropyrano[3′,4′:4,5]pyrrolo[2,3-d]pyrimidin-2-amine]
- IC50 [1, 2]: 100 to 1000 nM
- IC50 (Wee1 kinase domain; [3]): < 10 nM

SMILES: CN[C@H](c1cccc(N2c3nc(Nc4ccc(N5CCN(C)CC5)cc4)ncc3[C@@]3(C)COC(C)(C)C[C@@H]23)n1)C(F)(F)F [Example 755, (4bR,8aR)-4b,7,7-trimethyl-N-(4-(4-methylpiperazin-1-yl)phenyl)-9-(6-((R)-2,2,2-trifluoro-1-(methylamino)ethyl)pyridin-2-yl)-4b,5,7,8,8a,9-hexahydropyrano[3′,4′:4,5]pyrrolo[2,3-d]pyrimidin-2-amine]
- IC50 [1, 2]: 100 to 1000 nM
- IC50 (Wee1 kinase domain; [3]): < 10 nM

SMILES: CN1CC[C@H]2CN(c3ccc(Nc4ncc5c(n4)N(c4cccc(N6CCOC6=O)n4)[C@@H]4CC(C)(C)OC[C@]54C)cc3)C[C@H]21 [Example 684, 3-(6-((4bR,8aR)-4b,7,7-trimethyl-2-((4-((3aS,6aS)-1-methylhexahydropyrrolo[3,4-b]pyrrol-5(1H)-yl)phenyl)amino)-4b,7,8,8a-tetrahydropyrano[3′,4′:4,5]pyrrolo[2,3-d]pyrimidin-9(5H)-yl)pyridin-2-yl)oxazolidin-2-one]
- IC50 [1, 2]: 100 to 1000 nM
- IC50 (Wee1 kinase domain; [3]): < 10 nM

SMILES: CNCc1cccc(N2c3nc(Nc4cccc(N5CCOCC5)c4)ncc3[C@@]3(C)COC(C)(C)C[C@@H]23)n1 (single isomer, unassigned) [Example 470]
- IC50 [1, 2]: 100 to 1000 nM
- IC50 (Wee1 kinase domain; [3]): < 10 nM
